# Test results from patent US20090155247A1, “Methods of Using Death Receptor Agonists and EGFR Inhibitors” (priority 2005, published 2009).
# Tested on: H460 non-small lung cancer cells
# Assay: Growth of H460 tumor xenografts in vivo
# Settings: H460 cells injected subcutaneously in mice; compared with vehicle-treated mice; treatments as provided in FIG. 6
# Procedure: Mice were injected subcutaneously with H460 non-small lung cancer cells (ATCC) (5 million cells per mouse).
row,Compound,tumor growth
1,"C#Cc1cccc(Nc2ncnc3cc(OCCOC)c(OCCOC)cc23)c1 [Tarceva™, N-(3-ethynylphenyl)-6,7-bis(2-methoxyethoxy)-4-quinazolinamine]",markedly delayed tumor growth
2,Apo2L/TRAIL: Apo2L/TRAIL polypeptide consisting of amino acids 114-281 of FIG. 1,markedly delayed tumor growth
